Structures are written as SMILES.

In experiment [1] the target is T1, human sodium channels Nav 1.8 (Homo sapiens, UniProt Q9Y5Y9).
T1 construct: expressed in transfected cells
As to the kind of experiment: Automated whole-cell voltage-clamp (ScreenPatch 384P) sodium current block, Nav 1.8. The experiment is classed as cell-based. The note with it: CHO cells stably expressing human Nav 1.8; inactivation step -40 mV 8 s, test step 10 mV (TP1A); eight concentrations; exposure at least five minutes; room temperature; read-out: Nav1.8 IC50. Summed up: (§1)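 Stable CHO lines, whole-cell automated patch clamp at room temperature, ≥5 min exposure, eight concentrations. From -100 mV hold, 8 s at -40 mV, 20 ms at -100 mV, then test pulse to 10 mV (Nav 1.8) or 0 mV (Nav 1.7) at 0.05 Hz; peak-current % block fitted for IC50, averaged over repeats.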

Experiment [2] has as its target T2, human sodium channels Nav 1.7 (Homo sapiens, UniProt Q15858).
T2 construct: expressed in transfected cells
As to the kind of experiment: Automated whole-cell voltage-clamp (ScreenPatch 384P) sodium current block, Nav 1.7. The experiment is classed as cell-based. The following applies: CHO cells stably expressing human Nav 1.7; inactivation step -40 mV 8 s, test step 0 mV (TP1A); eight concentrations; exposure at least five minutes; room temperature; read-out: Nav1.7 IC50. Summed up:
as §1

T2 sequence (Q15858 whole entry): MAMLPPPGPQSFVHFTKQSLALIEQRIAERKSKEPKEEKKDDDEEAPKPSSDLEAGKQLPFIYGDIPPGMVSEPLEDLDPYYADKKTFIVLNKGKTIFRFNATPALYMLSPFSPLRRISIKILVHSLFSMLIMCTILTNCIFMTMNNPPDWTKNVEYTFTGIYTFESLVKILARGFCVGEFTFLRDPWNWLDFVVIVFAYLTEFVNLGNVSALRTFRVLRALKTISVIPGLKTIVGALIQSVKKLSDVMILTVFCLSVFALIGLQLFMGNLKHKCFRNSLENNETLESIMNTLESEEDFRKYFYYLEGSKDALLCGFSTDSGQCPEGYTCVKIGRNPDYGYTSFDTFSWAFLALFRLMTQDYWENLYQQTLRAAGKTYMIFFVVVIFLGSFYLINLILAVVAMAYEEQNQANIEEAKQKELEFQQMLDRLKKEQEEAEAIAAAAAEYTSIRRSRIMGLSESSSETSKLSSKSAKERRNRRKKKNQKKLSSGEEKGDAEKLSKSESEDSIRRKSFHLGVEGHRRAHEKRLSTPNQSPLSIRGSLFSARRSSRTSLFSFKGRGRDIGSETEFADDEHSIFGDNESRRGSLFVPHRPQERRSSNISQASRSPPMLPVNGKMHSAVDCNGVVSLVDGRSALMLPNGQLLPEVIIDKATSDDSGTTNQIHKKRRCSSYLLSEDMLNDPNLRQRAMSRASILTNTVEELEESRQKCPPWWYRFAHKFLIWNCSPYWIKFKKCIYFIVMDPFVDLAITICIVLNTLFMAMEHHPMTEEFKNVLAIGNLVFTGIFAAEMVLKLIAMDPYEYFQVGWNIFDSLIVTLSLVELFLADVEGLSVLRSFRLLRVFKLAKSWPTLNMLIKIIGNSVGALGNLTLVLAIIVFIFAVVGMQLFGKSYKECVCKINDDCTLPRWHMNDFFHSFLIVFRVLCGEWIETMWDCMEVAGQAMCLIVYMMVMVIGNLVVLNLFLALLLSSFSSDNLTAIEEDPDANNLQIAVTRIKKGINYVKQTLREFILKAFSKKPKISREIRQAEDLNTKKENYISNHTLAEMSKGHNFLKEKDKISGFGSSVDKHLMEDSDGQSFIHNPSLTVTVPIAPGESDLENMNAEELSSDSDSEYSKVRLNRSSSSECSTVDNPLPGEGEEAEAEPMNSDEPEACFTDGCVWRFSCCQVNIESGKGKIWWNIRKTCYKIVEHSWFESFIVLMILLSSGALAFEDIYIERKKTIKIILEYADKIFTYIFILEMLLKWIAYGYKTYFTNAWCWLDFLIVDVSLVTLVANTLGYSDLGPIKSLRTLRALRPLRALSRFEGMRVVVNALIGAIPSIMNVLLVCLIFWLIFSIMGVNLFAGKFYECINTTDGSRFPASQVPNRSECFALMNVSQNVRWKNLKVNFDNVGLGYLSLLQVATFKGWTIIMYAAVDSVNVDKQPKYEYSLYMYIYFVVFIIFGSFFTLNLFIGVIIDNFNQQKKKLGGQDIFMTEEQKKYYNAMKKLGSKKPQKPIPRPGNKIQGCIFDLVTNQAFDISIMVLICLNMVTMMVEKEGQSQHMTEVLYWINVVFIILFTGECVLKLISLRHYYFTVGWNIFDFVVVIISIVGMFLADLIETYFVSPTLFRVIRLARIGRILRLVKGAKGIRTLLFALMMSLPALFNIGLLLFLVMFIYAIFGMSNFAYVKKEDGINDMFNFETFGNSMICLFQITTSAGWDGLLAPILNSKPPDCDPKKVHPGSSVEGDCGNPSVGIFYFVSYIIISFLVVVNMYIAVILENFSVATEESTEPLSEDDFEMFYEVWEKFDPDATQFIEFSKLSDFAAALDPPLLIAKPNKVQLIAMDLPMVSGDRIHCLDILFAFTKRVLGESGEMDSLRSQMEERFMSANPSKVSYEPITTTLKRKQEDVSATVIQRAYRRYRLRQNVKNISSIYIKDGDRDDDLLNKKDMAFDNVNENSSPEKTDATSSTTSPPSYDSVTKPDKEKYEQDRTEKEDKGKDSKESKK
T1 sequence (Q9Y5Y9 whole entry): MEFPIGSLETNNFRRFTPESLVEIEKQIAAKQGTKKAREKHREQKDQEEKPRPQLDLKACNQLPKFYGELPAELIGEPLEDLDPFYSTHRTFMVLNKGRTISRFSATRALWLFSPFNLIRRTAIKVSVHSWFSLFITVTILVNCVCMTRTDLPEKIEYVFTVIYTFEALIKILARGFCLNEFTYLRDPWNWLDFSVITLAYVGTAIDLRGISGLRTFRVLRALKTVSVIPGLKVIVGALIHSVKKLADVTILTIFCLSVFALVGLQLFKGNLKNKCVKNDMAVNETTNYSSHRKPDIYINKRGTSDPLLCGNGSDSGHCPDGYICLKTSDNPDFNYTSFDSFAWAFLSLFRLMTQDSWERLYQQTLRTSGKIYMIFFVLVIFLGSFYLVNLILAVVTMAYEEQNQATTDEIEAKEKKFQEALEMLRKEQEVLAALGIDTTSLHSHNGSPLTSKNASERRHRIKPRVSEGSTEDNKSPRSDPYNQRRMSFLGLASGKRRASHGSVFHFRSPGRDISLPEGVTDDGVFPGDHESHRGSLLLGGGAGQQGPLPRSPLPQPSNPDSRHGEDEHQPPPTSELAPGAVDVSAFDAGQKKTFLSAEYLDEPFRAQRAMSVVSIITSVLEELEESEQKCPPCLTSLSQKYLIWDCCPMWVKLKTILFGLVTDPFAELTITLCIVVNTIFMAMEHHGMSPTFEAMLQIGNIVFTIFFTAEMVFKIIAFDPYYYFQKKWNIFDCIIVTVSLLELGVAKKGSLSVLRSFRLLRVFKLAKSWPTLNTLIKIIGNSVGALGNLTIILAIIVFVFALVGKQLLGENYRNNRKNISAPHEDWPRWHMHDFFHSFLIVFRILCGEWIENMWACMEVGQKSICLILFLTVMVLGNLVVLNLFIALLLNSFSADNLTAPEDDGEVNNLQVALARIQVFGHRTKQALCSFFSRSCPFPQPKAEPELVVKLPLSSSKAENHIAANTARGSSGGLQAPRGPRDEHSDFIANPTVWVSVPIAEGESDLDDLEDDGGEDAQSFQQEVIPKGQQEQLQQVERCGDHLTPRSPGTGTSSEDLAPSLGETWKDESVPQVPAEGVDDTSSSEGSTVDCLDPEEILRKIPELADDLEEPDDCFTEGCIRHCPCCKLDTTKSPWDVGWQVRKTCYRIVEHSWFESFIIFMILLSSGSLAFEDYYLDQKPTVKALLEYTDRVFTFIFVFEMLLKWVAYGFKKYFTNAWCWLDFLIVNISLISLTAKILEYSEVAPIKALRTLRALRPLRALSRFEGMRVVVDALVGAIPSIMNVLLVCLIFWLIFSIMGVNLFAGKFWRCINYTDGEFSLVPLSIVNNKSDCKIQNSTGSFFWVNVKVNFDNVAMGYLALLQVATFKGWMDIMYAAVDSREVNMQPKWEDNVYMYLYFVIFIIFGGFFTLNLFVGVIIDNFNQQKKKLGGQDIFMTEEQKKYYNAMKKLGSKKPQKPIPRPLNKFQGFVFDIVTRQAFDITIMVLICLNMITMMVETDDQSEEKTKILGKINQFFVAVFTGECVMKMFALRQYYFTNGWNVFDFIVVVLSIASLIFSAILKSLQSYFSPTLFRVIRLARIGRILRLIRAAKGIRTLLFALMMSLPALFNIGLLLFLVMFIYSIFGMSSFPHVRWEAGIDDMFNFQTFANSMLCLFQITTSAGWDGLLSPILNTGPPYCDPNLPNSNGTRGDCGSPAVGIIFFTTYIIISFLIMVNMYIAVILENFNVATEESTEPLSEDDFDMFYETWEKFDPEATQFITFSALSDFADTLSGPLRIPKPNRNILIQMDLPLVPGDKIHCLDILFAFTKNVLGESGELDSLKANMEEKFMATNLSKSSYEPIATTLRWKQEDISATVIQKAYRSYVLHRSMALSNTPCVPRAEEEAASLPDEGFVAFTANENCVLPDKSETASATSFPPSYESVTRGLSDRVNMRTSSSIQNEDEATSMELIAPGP

For `CCOc1ccc(-c2cncc(C(=O)N/N=C/c3cc(N4CC(O)C4)ccc3F)n2)cn1` [Compound 37, (E)-6-(6-ethoxypyridine-3-yl)-N'-(2-fluoro-5-(3-hydroxyazetidine-1-yl)benzylidene) pyrazine-2-carbohydrazide], the IC50 in experiment [1] and in experiment [2] was above 1000 nM in each case.

Consider `COc1ccc(F)c(/C=N/NC(=O)c2cncc(-c3ccc(OCCN)nc3)n2)c1` [Compound 135, (E)-6-(6-(2-aminoethoxy)pyridine-3-yl)-N'-(2-fluoro-5-methoxybenzylidene) pyrazine-2-carbohydrazide], for which the IC50 in experiment [1] and in experiment [2] was above 1000 nM in each case.

Regarding `CCOc1ccc(-c2cccc(C(=O)N/N=C/c3cc(OC)cnc3F)n2)cn1` [Compound 71, (E) -6'-ethoxy-N'-((2-fluoro-5-methoxypyridine-3-yl)methylene)-[2,3'-bipyridine]-6-carbohydrazide], the half-inhibitory concentration (IC50) (as a rule, the concentration that gives 50% inhibition) in experiment [1] is below 500 nM; in experiment [2], 500 to 1000 nM.

As to `CCOc1ccc(-c2cncc(C(=O)N/N=C/c3cc(OC4CC4)ccc3F)n2)cn1` [Compound 6, (E)-N'-(5-cyclopropoxy-2-fluorobenzylidene)-6-(6-ethoxypyridine-3-yl)pyrazine-2-carbohydrazide], the values for the IC50 in experiment [1] and in experiment [2] were below 500 nM and above 1000 nM, respectively.

As to `COc1ccc(C)c(/C=N/NC(=O)c2cncc(-c3ccc(OC(F)F)nc3)n2)c1` [Compound 102, (E)-6-(6-(difluoromethoxy)pyridine-3-yl)-N'-(5-methoxy-2-methylbenzylidene) pyrazine-2-carbohydrazide], the IC50 in experiment [1] was below 500 nM; in experiment [2], above 1000 nM.

Consider `COc1ccc(F)c(/C=N/NC(=O)c2cncc(-c3ccc(OC(F)F)nc3)n2)c1` [Compound 100, (E)-6-(6-(difluoromethoxy)pyridine-3-yl)-N'-(2-fluoro-5-methoxybenzylidene) pyrazine-2-carbohydrazide], for which the IC50 was below 500 nM in experiment [1] and 500 to 1000 nM in experiment [2].

Turning to `CNS(=O)(=O)c1ccc(-c2cncc(C(=O)N/N=C/c3cc(OC)ccc3F)n2)cn1` [Compound 134, (E)-5-(6-(2-(2-fluoro-5-methoxybenzylidene)hydrazine-1-carbonyl)pyrazine-2-yl)-N-methylpyridine-2-sulfonamide], the IC50 in experiment [1] and in experiment [2] was above 1000 nM throughout.

For `CCOc1ccc(-c2cncc(C(=O)N/N=C/c3cc(S(N)(=O)=O)ccc3F)n2)cn1` [Compound 14, (E)-3-((2-(6-(6-ethoxypyridine-3-yl)pyrazine-2-carbonyl)hydrazinylidene)methyl)-4-fluorobenzenesulfonamide], the IC50 in experiment [1] and in experiment [2] was above 1000 nM each time.

For `COc1ccc(F)c(/C=N/NC(=O)c2cncc(-c3ccc(OC(F)(F)F)nc3)n2)n1` [Compound 97, (E)-N'-((3-fluoro-6-methoxypyridine-2-yl)methylene)-6-(6-(trifluoromethoxy)pyridine-3-yl)pyrazine-2-carbohydrazide], the IC50 in experiment [1] and in experiment [2] was above 1000 nM each time.

Turning to `COc1cnc(F)c(/C=N/NC(=O)c2cncc(-c3ccc(OC(F)F)nc3)n2)c1` [Compound 101, (E)-6-(6-(difluoromethoxy)pyridine-3-yl)-N'-((2-fluoro-5-methoxypyridine-3-yl)methylene)pyrazine-2-carbohydrazide], the values for the IC50 in experiment [1] and in experiment [2] were below 500 nM and above 1000 nM, respectively.

For `COc1cnc(F)c(/C=N/NC(=O)c2cncc(-c3ccc(OCCC4CNC4)nc3)n2)c1` [Compound 144, (E)-6-(6-(2-(azetidine-3-yl)ethoxy)pyridine-3-yl)-N'-((2-fluoro-5-methoxypyridine-3-yl)methylene)pyrazine-2-carbohydrazide], the IC50 in experiment [1] and in experiment [2] was above 1000 nM throughout.

`COc1ccc(F)c(/C=N/NC(=O)c2cncc(-c3ccc(OCC4CNC4)nc3)n2)c1` [Compound 140, (E)-6-(6-(azetidin-3-ylmethoxy)pyridine-3-yl)-N'-(2-fluoro-5-methoxybenzylidene) pyrazine-2-carbohydrazide]: the IC50 in experiment [1] and in experiment [2] was above 1000 nM each time.

For the compound `CCOc1ccc(-c2cncc(C(=O)N/N=C/c3ccc(F)c(OC)c3)n2)cn1` [Compound 2, (E)-6-(6-ethoxypyridine-3-yl)-N'-(4-fluoro-3-methoxybenzylidene)pyrazine-2-carbohydrazide], the IC50 in experiment [1] was below 500 nM; in experiment [2], 500 to 1000 nM.

In the case of `CCOc1ccc(-c2cncc(C(=O)N/N=C/c3cc(OC4CCC4)cnc3F)n2)cn1` [Compound 36, (E)-N'-((5-cyclobutoxy-2-fluoropyridine-3-yl)methylene)-6-(6-ethoxypyridine-3-yl)pyrazine-2-carbohydrazide], the results for the 50% inhibitory concentration (IC50) in experiment [1] and in experiment [2] were below 500 nM and above 1000 nM, respectively.

As for `CCOc1ccc(-c2cncc(C(=O)N/N=C/c3nccn3CC)n2)cn1` [Compound 60, (E)-6-(6-ethoxypyridine-3-yl)-N'-((1-ethyl-1H-imidazole-2-yl)methylene)pyrazine-2-carbohydrazide], the results for the IC50 in experiment [1] and in experiment [2] were 500 to 1000 nM and above 1000 nM, respectively.

Turning to `CCOc1ccc(-c2cncc(C(=O)N/N=C/c3cncc(C(C)O)c3)n2)cn1` (stereo not drawn) [Compound 24, (E)-6-(6-ethoxypyridine-3-yl)-N'-((5-(1-hydroxyethyl)pyridine-3-yl)methylene)pyrazine-2-carbohydrazide], the IC50 in experiment [1] and in experiment [2] was above 1000 nM throughout.

Turning to `CC(O)c1cnc(F)c(/C=N/NC(=O)c2cncc(-c3ccc(OC(F)F)nc3)n2)c1` (stereo not drawn) [Compound 112, (E)-6-(6-(difluoromethoxy)pyridine-3-yl)-N'-((2-fluoro-5-(1-hydroxyethyl)pyridine-3-yl)methylene)pyrazine-2-carbohydrazide], the IC50 in experiment [1] was 500 to 1000 nM; in experiment [2], above 1000 nM.

On to `COc1ccc(F)c(/C=N/NC(=O)c2cncc(-c3ccc(S(N)(=O)=O)nc3)n2)c1` [Compound 133, (E)-5-(6-(2-(2-fluoro-5-methoxybenzylidene)hydrazine-1-carbonyl)pyrazine-2-yl)pyridine-2-sulfonamide], for which the IC50 in experiment [1] and in experiment [2] was above 1000 nM throughout.

For the compound `CCOc1ccc(-c2nccc(C(=O)N/N=C/c3cc(OC)cnc3F)n2)cn1` [Compound 72, (E)-2-(6-ethoxypyridine-3-yl)-N'-((2-fluoro-5-methoxypyridine-3-yl)methylene) pyrimidine-4-carbohydrazide], the IC50 in experiment [1] is below 500 nM; in experiment [2], above 1000 nM.

For `CCOc1ccc(-c2nc(C(=O)N/N=C/c3cc(OC)ccc3F)cnc2N)cn1` [Compound 63, (E)-5-amino-6-(6-ethoxypyridine-3-yl)-N'-(2-fluoro-5-methoxybenzylidene) pyrazine-2-carbohydrazide], the IC50 in experiment [1] is 500 to 1000 nM; in experiment [2] it was above 1000 nM.

As for `[2H]C([2H])([2H])Oc1cnc(F)c(/C=N/NC(=O)c2cncc(-c3ccc(OC([2H])([2H])C([2H])([2H])[2H])nc3)n2)c1` [Compound 174, (E)-6-(6-(ethoxy-d5)pyridine-3-yl)-N'-((2-fluoro-5-(methoxy-d3)pyridine-3-yl)methylene)pyrazine-2-carbohydrazide], the IC50 in experiment [1] is below 500 nM; in experiment [2], above 1000 nM.

These data come from patent publication EP4660182A1, “NAV1.7- AND/OR NAV1.8-INHIBITING ARYL PYRIDINE COMPOUNDS, PROCESSES FOR THE PREPARATION THEREOF, COMPOSITIONS, USES, METHODS FOR TREATMENT USING SAME, AND KITS” (Eurofarma Laboratórios S.A., priority 2023, dated 2024).
